Experimental data: patent publication US11098062B2, “Monocyclic and bicyclic ring system substituted carbanucleoside analogues for use as PRMT5 inhibitors” (Janssen Pharmaceutica NV, priority 2016, dated 2021)

These compounds were tested against T1, PRMT5-MEP50 enzyme (Homo sapiens, UniProt O14744) (assay: In vitro assay 1b: PRMT5-MEP50 high throughput mass spectrometer assay (SAH formation), 1.25 nM enzyme). Conditions: not given.
T1 construct: One virus expresses full length human PRMT5 with Flag-tag at N-terminus; Flag (N); purchased Charles River (Argenta); host or cells: insect cells (Sf9), baculovirus co-infection
T1 sequence (O14744 whole entry): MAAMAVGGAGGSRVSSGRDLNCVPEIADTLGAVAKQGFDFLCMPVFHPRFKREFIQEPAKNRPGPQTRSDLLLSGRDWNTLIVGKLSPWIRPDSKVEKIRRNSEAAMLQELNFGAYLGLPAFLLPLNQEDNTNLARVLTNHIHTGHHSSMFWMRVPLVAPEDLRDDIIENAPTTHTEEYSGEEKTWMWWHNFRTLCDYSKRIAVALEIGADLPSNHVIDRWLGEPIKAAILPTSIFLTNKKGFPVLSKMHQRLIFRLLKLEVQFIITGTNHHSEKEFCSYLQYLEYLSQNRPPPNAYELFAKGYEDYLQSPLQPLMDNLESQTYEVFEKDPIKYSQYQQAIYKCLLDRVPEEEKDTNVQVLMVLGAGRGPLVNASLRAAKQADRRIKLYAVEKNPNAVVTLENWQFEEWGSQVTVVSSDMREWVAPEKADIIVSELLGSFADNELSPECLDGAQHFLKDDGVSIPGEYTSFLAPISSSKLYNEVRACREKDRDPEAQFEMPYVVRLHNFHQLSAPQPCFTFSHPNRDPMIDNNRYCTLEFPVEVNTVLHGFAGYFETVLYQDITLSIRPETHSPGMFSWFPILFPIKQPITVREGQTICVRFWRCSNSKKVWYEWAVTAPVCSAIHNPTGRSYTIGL
T1 sequence (Q9BQA1 whole entry partner): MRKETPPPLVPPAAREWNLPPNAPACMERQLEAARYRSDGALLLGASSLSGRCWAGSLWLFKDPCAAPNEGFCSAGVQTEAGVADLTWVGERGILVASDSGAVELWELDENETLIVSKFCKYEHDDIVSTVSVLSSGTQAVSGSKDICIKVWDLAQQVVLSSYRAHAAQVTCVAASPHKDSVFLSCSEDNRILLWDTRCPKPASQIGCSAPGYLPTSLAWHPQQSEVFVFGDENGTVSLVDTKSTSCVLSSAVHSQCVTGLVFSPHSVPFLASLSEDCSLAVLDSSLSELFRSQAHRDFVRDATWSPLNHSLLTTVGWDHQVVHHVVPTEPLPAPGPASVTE
Type: biochemical
Description: (§1) Experimental Procedures In Vitro Assay (Assay 1a and 1b)
(§2) PRMT5-MEP50 enzyme was purchased from Charles River (Argenta). The enzyme complex was produced in insect cells (Sf9) infected simultaneously with two baculoviruses. One virus expresses full length human PRMT5 with Flag-tag at N-terminus, the second virus expresses full length MEP50 with His6-TEV cleavage at N-terminus. The protein was affinity purified using anti-Flag (M2) beads eluted with 3×FLAG peptide, followed by His-Select eluted with 0.5M imidazole. Eluted protein was then dialysed against tris-buffered saline (TBS) (pH 8.0) containing 20% glycerol and 3 mM dithiothreitol (DTT).
(§3) Full-length untagged human recombinant histone H2A (residues 1-130, Genbank Accession #NM_021052, MW=14.1 kDa) expressed in E. coli was purchased from Reaction Biology Corporation, Cat #HMT-11-146. Reagents used for making reaction buffer or stopping reaction were purchased including Tris base (Sigma Cat #T-1503), NaCl (Sigma Cat #RGF-3270), MgCl2 (Sigma Cat #M0250), DTT (Invitrogen Cat #15508-013) and Formic Acid (Riedel deHaen, Cat #33015)
(§4) PRMT5 catalyzes the sequential methylations of the terminal nitrogen atoms on the guanidine groups of arginine residues within proteins using co-substrate S-adenosyl-L-methionine (AdoMet, SAM), forming mono-methyl (MMA), syrmmetric-dimethyl arginine (sDMA) and S-adenosyl-L-homocysteine (AdoHcy, SAH). The enzyme activity was determined by following the product SAH formation using high throughput mass spectrometry (Agilent Rapidfire 300 System coupled to a Sciex 4000 series QTrap® triple-quad MS/MS). The reaction buffer was 20 mM Tris-HCl, pH 8.5, 50 mM NaCl, 5 mM MgCl2 and 1 mM DTT. The reaction activity was stopped using 1% formic acid (final concentration).
(§5) The IC50 Studies were performed using eleven point dosing series made for each compound by serially diluted 1:2 in dimethyl sulfoxide (DMSO), with point 12 being a DMSO control. Compounds were first spotted to plates, and followed by addition of 2 μM SAM and 0.6 μM H2A (histone H2A) solution mixture. The same volume of enzyme solution was added to initiate the enzymatic reactions. The final concentrations of the reaction are at 1 μM SAM, 0.3 μM H2A and 10 nM enzyme (assay 1a) or or 1.25 nM enzyme (assay 1b). The reaction was incubated at 30° C. for 60 minutes (min) when 10 nM enzyme was used and for 120 min when 1.25 nM enzyme was used. Subsequently, the reaction was quenched by addition of formic acid to a final concentration of 1%. The inhibitions of SAH formation in the presence of compounds were calculated as a percentage of the control relative to the uninhibited reaction as a function of inhibitor concentration. The data were fit as follows: Y=Bottom+(Top−Bottom)/(1+10^((log IC50−X)*h))
(§6) where IC50 is the inhibitor concentration (same unit as X) at 50% inhibition and h is the Hill slope. Y is percent of inhibition, X is log of compound concentration. Bottom and Top are the plateaus in same units as Y.

Row | Structure (SMILES) | IC50 [nM]
1 | Cc1nc2cc(CC[C@H]3C[C@@H](n4ccc5c(N)ncnc54)[C@H](O)[C@@H]3O)ccn2c1C [Compound 11] | < 0.2
2 | Nc1ccc(CC[C@H]2C[C@@H](n3ccc4c(N)ncnc43)[C@H](O)[C@@H]2O)cn1 [Compound 27] | 5.01

Same assay, conditions: 1.25 nM enzyme, 1 μM SAM, 0.3 μM H2A, 30° C., 120 min; averaged values; read-out: pIC50 Assay 1b (converted)

Row | Structure (SMILES) | IC50 [nM]
3 | Cc1cnc2cc(CC[C@H]3C[C@@H](n4ccc5c(N)ncnc54)[C@H](O)[C@@H]3O)c(Cl)cn12 [Compound 2] | 0.158
4 | CNc1ncnc2c1ccn2[C@@H]1C[C@H](CCc2ccn3c(C)cnc3c2)[C@@H](O)[C@H]1O [Compound 9] | 3.98
5 | COc1ncnc2c1ccn2[C@@H]1C[C@H](CCc2ccn3c(C)cnc3c2)[C@@H](O)[C@H]1O [Compound 10] | 10
6 | Cc1cnc2cc(CC[C@H]3C[C@@H](n4ccc5c(N)ncnc54)[C@H](O)[C@@H]3O)c(F)cn12 [Compound 12] | 0.316
7 | Cc1cnc2cc(CC[C@H]3C[C@@H](n4cc(Br)c5c(N)ncnc54)[C@H](O)[C@@H]3O)ccn12 [Compound 15] | 1

The next lines start with the values.

Row | IC50 [nM] | Structure (SMILES)
8 | 2.51 | Nc1ncnc2c1ccn2[C@@H]1C[C@H](CCc2ccn3c(C4CC4)cnc3c2)[C@@H](O)[C@H]1O [Compound 8]
9 | 1.26 | Nc1ncnc2c1ccn2[C@@H]1C[C@H](CCc2ccn3c(Cl)cnc3c2)[C@@H](O)[C@H]1O [Compound 13]
10 | 1.58 | Nc1ncnc2c1ccn2[C@@H]1C[C@H](CCc2ccn3c(Br)cnc3c2)[C@@H](O)[C@H]1O [Compound 14]
11 | 3.98 | Cc1cnc2c(Cl)c(CC[C@H]3C[C@@H](n4ccc5c(N)ncnc54)[C@H](O)[C@@H]3O)ccn12 [Compound 21]
12 | 158 | Nc1cccc(CC[C@H]2C[C@@H](n3ccc4c(N)ncnc43)[C@H](O)[C@@H]2O)n1 [Compound 28]
13 | 398 | Nc1cc(CC[C@H]2C[C@@H](n3ccc4c(N)ncnc43)[C@H](O)[C@@H]2O)ccn1 [Compound 29]

The compounds below were run against T1, PRMT5-MEP50 enzyme (assay: In vitro assay 1a: PRMT5-MEP50 high throughput mass spectrometer assay (SAH formation), 10 nM enzyme). Conditions: 1 μM SAM, 0.3 μM H2A, 30° C., 60 min, averaged values, read-out: pIC50 Assay 1a (converted).
Type: biochemical
Description: as §1, §2, §3, §4, §5, §6

Row | IC50 [nM] | Structure (SMILES)
14 | 2 | Nc1ncnc2c1ccn2[C@@H]1C[C@H](CCc2ccn3c(Cl)cnc3c2)[C@@H](O)[C@H]1O [Compound 13]
15 | 1.26 | Nc1ncnc2c1ccn2[C@@H]1C[C@H](CCc2ccn3c(Br)cnc3c2)[C@@H](O)[C@H]1O [Compound 14]

What follows are compounds tested on nuclear symmetric Arginine dimethylation in A549 cells (assay: PD assay (assay 2): inhibition of nuclear symmetric Arginine dimethylation (SYM10 immunostaining) in A549 cells). Conditions: Homo sapiens, 48 h incubation, SYM10 antibody, averaged values, read-out: pIC50 Assay 2 (converted).
Type: cell-based
Protocol: Experimental Procedure PD Assay (Assay 2)
A549 cells (ATCC, Cat #CCL-185) were cultured in Dulbecco's Modified Eagle's Medium (DMEM) (Sigma, Cat #D5796), supplemented with 10% Fetal Calf Serum (FCS) (HyClone™, Cat #SV30160.03), 100 mM Sodium Pyruvate (Sigma, Cat #S8636), 200 mM L-Glutamine (Sigma, Cat #G7513) and 50 mg/mL Gentamycing (Gibco, Cat #15750-037).
Reagents used for buffers were purchased: Dulbecco's phosphate buffered saline (DPBS) without Ca/Mg (Sigma, Cat #D8537), phosphate buffered saline (PBS) 10× (Roche, Cat #11 666 789 001), Formalin solution 10% (Sigma, HT50-1-128-4L), Methanol 100% (Sigma, Cat #32213-2.5L), Triton X-100 (Acros, Cat #215680010), Bovine Serum Albumin (BSA) (Sigma, Cat #A2153), Alexa fluor 488 goat anti-rabbit antibody (Life Technologies, Cat #A11034), HCS CellMask Deep Red Stain (Life Technologies, Cat #H32721), Hoechst Stain (Life Technologies, Cat #33258), Anti-dimethyl-Arginine, sym (SYM10) antibody (Millipore, 07-412).
Cells were plated at 400 cells/40 μL/well in 384 well black μplates clear bottom (Perkin Elmer) and overnight incubated at 37° C., 5% CO2. The IC50 Studies were performed using nine point dosing series ranging from 10 μM to […] for each compound. 80 nL of the respective dilution of the compounds was added using the Labcyte POD 810 (Labcyte) reaching a final DMSO concentration of 0.2% in cell culture. After an incubation period of 48 h at 37° C. and 5% CO2, cells were fixed in 10% formalin solution for 15 min at room temperature and 20 min in ice-cold methanol, after which they were washed 3× in DPBS. Subsequently, the cells were blocked for 1 h in blocking buffer (PBS+1% BSA and 0.5% Triton X-100) and incubated overnight at 4° C. with the SYM10 antibody diluted 1/2000 in blocking buffer. The cells were washed 3× with washing buffer (PBS+0.1% Triton X-100) and incubated with the Alexa fluor 488 goat anti-rabbit antibody diluted 1/200 in blocking buffer for 1 h at room temperature. Subsequently, they were washed 3× with washing buffer and incubated for 30 min at room temperature with PBS containing a 1/5000 dilution of Hoechst Stain and a 1/5000 dilution of the HCS CellMask Deep Red Stain. After a final wash with PBS, the plates were imaged using the 10×W lens of the Opera® system (Perkin Elmer Life Sciences) using following settings (values in nm):
Low control: minimum level of symmetrically dimethylated Arginines (cells treated with reference compound at 10 μM).
High control: maximum level of symmetrically dimethylated Arginines (DMSO treated cells).
IC50 and pIC50 (−log IC50) values were calculated using the appropriate software.
The pIC50 values in the Table below are averaged values (Co. No. means compound number; n.d. means not determined).

Row | Structure (SMILES) | IC50 [nM]
16 | Cc1cnc2cc(CC[C@H]3C[C@@H](n4ccc5c(N)ncnc54)[C@H](O)[C@@H]3O)c(Cl)cn12 [Compound 2] | 6.31
17 | CNc1ncnc2c1ccn2[C@@H]1C[C@H](CCc2ccn3c(C)cnc3c2)[C@@H](O)[C@H]1O [Compound 9] | 63.1
18 | COc1ncnc2c1ccn2[C@@H]1C[C@H](CCc2ccn3c(C)cnc3c2)[C@@H](O)[C@H]1O [Compound 10] | 200
19 | Cc1nc2cc(CC[C@H]3C[C@@H](n4ccc5c(N)ncnc54)[C@H](O)[C@@H]3O)ccn2c1C [Compound 11] | 3.98
20 | Cc1cnc2cc(CC[C@H]3C[C@@H](n4ccc5c(N)ncnc54)[C@H](O)[C@@H]3O)c(F)cn12 [Compound 12] | 2
21 | Cc1cnc2cc(CC[C@H]3C[C@@H](n4cc(Br)c5c(N)ncnc54)[C@H](O)[C@@H]3O)ccn12 [Compound 15] | 6.31
22 | Nc1ccc(CC[C@H]2C[C@@H](n3ccc4c(N)ncnc43)[C@H](O)[C@@H]2O)cn1 [Compound 27] | 6.31

Other lines, results leading:

Row | IC50 [nM] | Structure (SMILES)
23 | 25.1 | Nc1ncnc2c1ccn2[C@@H]1C[C@H](CCc2ccn3c(C4CC4)cnc3c2)[C@@H](O)[C@H]1O [Compound 8]
24 | 20 | Nc1ncnc2c1ccn2[C@@H]1C[C@H](CCc2ccn3c(Cl)cnc3c2)[C@@H](O)[C@H]1O [Compound 13]
25 | 12.6 | Nc1ncnc2c1ccn2[C@@H]1C[C@H](CCc2ccn3c(Br)cnc3c2)[C@@H](O)[C@H]1O [Compound 14]
26 | 15.8 | Cc1cnc2c(Cl)c(CC[C@H]3C[C@@H](n4ccc5c(N)ncnc54)[C@H](O)[C@@H]3O)ccn12 [Compound 21]
27 | 631 | Nc1cccc(CC[C@H]2C[C@@H](n3ccc4c(N)ncnc43)[C@H](O)[C@@H]2O)n1 [Compound 28]
28 | 2000 | Nc1cc(CC[C@H]2C[C@@H](n3ccc4c(N)ncnc43)[C@H](O)[C@@H]2O)ccn1 [Compound 29]
